In patent US8222275B2, “Biarylcarboxyarylamides as vanilloid-1 receptor modulators” (Pharmeste S.R.L., priority 2006, dated 2012):

Legend:
[1] = biological target: T1, TRPV1 expressed in rat spinal cord (Rattus norvegicus, UniProt O35433); assay: Radioligand binding assay, [3H]-RTX, rat spinal cord membranes
T1 construct: TRPV1 expressed in rat spinal cord; from tissue; host or cells: rat (Sprague-Dawley) spinal cord membranes
Experimental: Radioligand Binding Assay
Male Sprague-Dawley rats with body weight between 250 to 350 g at the time for testing were used. For binding assays rats were sacrificed by decapitation under anesthesia and the spinal cord was removed and disrupted using a Polytron tissue homogenizer in ice cold buffer containing 5 mM KCl, 5.8 mM NaCl, 0.75 mM CaCl2, 2 mM MgCl2, 320 mM sucrose, 10 mM Hepes, pH 8.6.^5 The homogenized tissue was centrifuged at 1000×g for 10 min at 4° C. and the supernatant was centrifuged again at 35000×g for 30 min at 4° C. (Beckman Avanti J25). The pellet was resuspended in the same buffer as described above and used in binding experiments. In saturation experiments, 150 μg protein/sample from membrane suspensions were incubated with [^3H]-Resiniferatoxin ([^3H]-RTX) (0.003-3 nM) in the assay buffer containing 0.25 mg/ml fatty acid-free bovine serum albumin at 37° C. for 60 min. […]
Non specific binding was evaluated in the presence of 1 μM RTX. […] The tip of the microcentrifuge tube containing the pellet was cut off and the radioactivity was determined by scintillation counting (Packard 2500 TR). Protein concentration was determined according to a Bio-Rad method with bovine serum albumin as a standard reference (Bradford, 1976). Saturation and competition studies were analyzed with the Ligand program.^6

[2] = tested on: capsaicin-induced tactile allodynia; assay: Capsaicin-induced secondary allodynia in rat; assay type: in vivo; settings: 30 μmol/kg oral 2 hours prior to capsaicin (20 nmols/50 μl/paw), evaluated 90 min after challenge
Experimental: Capsaicin-Induced Secondary Allodynia in Rat
Capsaicin (20 nmols/50 μl/paw) was injected in the plantar surface of the glabrous skin of the right paw of rats anesthetized with diethyl ether (Chaplan et al., 1994). Compound V394 was orally administrated (30 μmol/kg) 2 hours prior to capsaicin injection. Tactile allodynia was evaluated 90 min after capsaicin challenge.

[3] = biological target: T2, TRPV1 expressing dorsal root ganglia neurons (Rattus norvegicus, UniProt O35433); assay: Ca2+ fluorescence measurements in cultured rat dorsal root ganglia neurones; assay type: cell-based; settings: 0.1 μM capsaicin, mean and 95% fiducial limits, read-out: IC50 for inhibition of capsaicin-evoked [Ca2+]i mobilization
T2 construct: Dorsal root ganglia were removed and placed in cold phosphate buffered solution; endogenous in cells; host or cells: primary cultured rat dorsal root ganglia neurons
Experimental: Ca^2+ Fluorescence Measurements in Cultured Rat Dorsal Root Ganglia Neurones
Adults rats were terminally anaesthetized and decapitated. Dorsal root ganglia were removed and placed in cold phosphate buffered solution (PBS) before being transferred to collagenase (10 mg/ml), trypsin (5 mg/ml) and DNAse (1 mg/ml) for 35 min at 37° C. The ganglia, placed in cold DMEM supplemented with 10% fetal bovine serum, 2 mM L-glutamine, 100 U/ml penicillin and 100 μg/ml streptomycin, were dissociated in single cells by several passages through a series of syringe needles (23 G down to 25 G). The medium and the ganglia were filtered to remove debris, topped up with 8 ml of DMEM medium and centrifuged (200×g for 5 min). The final cell pellet was re-suspended in DMEM medium [supplemented with 100 ng/ml mouse Nerve Growth Factor (mouse-NGF-7S) and cytosine-β-D-arabinofuranoside free base (ARA-C) 2.5 μM]. […] Fura-2-AM-ester was excited at […] to indicate relative [Ca^2+]i changes by the F340/F380 ratio recorded with a dynamic image analysis system (Laboratory Automation 2.0, RCS, Florence, Italy) and the cells were allowed (at least 10 min) to attain a stable fluorescence before beginning the experiment. […]

T1 sequence (O35433 whole entry): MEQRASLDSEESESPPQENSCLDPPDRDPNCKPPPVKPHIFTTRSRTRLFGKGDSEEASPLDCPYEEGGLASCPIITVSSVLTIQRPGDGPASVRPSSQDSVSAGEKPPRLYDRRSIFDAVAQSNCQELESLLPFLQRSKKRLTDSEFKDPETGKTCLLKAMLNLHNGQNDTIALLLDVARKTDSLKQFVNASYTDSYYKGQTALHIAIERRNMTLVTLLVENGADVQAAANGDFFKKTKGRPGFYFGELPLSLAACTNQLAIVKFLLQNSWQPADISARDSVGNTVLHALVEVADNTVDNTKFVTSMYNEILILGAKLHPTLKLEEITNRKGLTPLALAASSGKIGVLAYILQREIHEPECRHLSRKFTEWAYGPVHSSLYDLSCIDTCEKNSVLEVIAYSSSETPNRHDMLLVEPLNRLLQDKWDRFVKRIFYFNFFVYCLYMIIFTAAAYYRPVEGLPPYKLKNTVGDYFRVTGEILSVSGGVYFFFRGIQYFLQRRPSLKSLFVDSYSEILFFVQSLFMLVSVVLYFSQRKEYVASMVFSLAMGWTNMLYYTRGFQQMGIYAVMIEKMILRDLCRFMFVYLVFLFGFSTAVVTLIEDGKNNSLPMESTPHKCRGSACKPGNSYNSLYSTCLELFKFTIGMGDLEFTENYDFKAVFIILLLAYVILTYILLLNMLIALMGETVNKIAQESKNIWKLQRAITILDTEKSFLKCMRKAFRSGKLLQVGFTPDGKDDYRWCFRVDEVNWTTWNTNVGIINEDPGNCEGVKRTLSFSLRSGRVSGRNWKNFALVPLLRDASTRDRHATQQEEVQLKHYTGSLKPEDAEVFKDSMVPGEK
T2 sequence (O35433 whole entry): as above

melting point | Ki ([1]; [3H]RTX 0.4 nM, 37° C. 60 min, 95% fiducial limits in brackets, read-out: Ki value, competition binding of [3H]-RTX) | IC50 [3] | SMILES | Kd ([1]; saturation experiments, [3H]-RTX 0.003-3 nM, read-out: KD value, saturation curve of [3H]-RTX) | preventive effect against the pro-allodinic effect of capsaicin [2]
 |  |  | C=C(C)[C@]12C[C@@H](C)[C@@]34O[C@](Cc5ccccc5)(O[C@@H]1[C@@H]3C=C(COC(=O)Cc1ccc(O)c(OC)c1)C[C@]1(O)C(=O)C(C)=C[C@@H]41)O2 [[^3H]-RTX, [^3H]-Resiniferatoxin, reference compound] | 0.21 nM | 
258 °C | 15 nM | 0.83 nM | O=C(Nc1ccc(Cl)cc1)c1ccc(-c2cccc3cnccc23)nc1 [V394, N-(4-chlorophenyl)-6-(isoquinolin-5-yl)pyridine-3-carboxamide] |  | 55%
